The text below walks through data of paper PMC9916778 (International Journal of Molecular Sciences, 2023).

The subject of data set [1] is A2780 cells. Briefly: Induction of autophagy (CYTO-ID kit). Format: cell-based, human. To be noted: A2780, half-cytotoxic concentration, 24 h. How it is done: The induction of autophagy by complex (1) was studied using a CYTO-ID® Autophagy Detection Kit 2.0 (ENZO, New York, NY, USA) according to the manufacturer’s protocol. Briefly, the A2780 cells were seeded in a 24-well cell culture plate at 5 × 10^4 cells per well and cultivated for 24 h. The next day, the cells were treated with complex (1) at 4 µM. […] Then, the cells were stained with CYTO-ID® Green stain solution and incubated for 30 min in the dark. After the final wash with PBS, the cell suspensions were analyzed using the BD FACSVerse flow cytometer (Becton Dickinson, USA) in three separate experiments, while at least 10^4 events were recorded for each sample prepared in duplicates. The cells incubated with the mixture of chloroquine (10 µM) and rapamycin (0.5 µM) for 18 h were used as a positive control.

Data set [2] concerns A2780 cells. The data set can be described thus: Mitochondrial membrane potential analysis (MITO-ID). Type of data set: cell-based, human. To be noted: A2780, half-cytotoxic concentration, 24 h. As for the experimental part:
The A2780 cells were seeded in 24-well cell culture plates at 5 × 10^4 cells/well and cultivated for 24 h. The next day, the complex (1) was added to a final concentration of 4 µM, and the cells were incubated for another 24 h. […] The cells were then isolated by centrifugation and resuspended in a staining solution prepared according to the manufacturer’s protocol from a MITO-ID® Membrane Potential Detection kit (Enzo Life Sciences, USA). Finally, the cells were analyzed using a BD FACSVerse flow cytometer (Becton Dickinson, USA). The control was carried out by treatment with 2 µM carbonyl cyanide 3-chlorophenylhydrazone (CCCP). Three independent experiments were conducted, each in duplicate.

The test system of data set [3] is A2780R Cisplatin-resistant ovarian carcinoma cells. The data set can be described thus: In vitro cytotoxicity (MTT assay), A2780R. Type of data set: cell-based, human. To be noted: ± standard deviation, triplicate. How it is done:
(§1) The testing was performed on the ovarian carcinoma (A2780), Cisplatin-resistant ovarian carcinoma (A2780R), prostate adenocarcinoma (PC-3), prostate carcinoma (22Rv1), and leukemia monocytic (THP-1) and intestinal colon adenocarcinoma (LS180) human cell lines that were obtained from the ATCC collection of cell lines and cultivated according to the producer’s instructions. The reference normal cell line of human fetal fibroblasts (MRC-5) was obtained from the same commercial source and maintained according to the producer’s instructions. The half-maximal inhibitory concentrations (IC50) were calculated from dose–response curves by means of the GraphPad Prism 6 software (GraphPad Software, San Diego, CA, USA).

Data set [4] has as its system THP1-Blue™ NF-κB cells. Briefly: Cell viability, CCK-8, serum-free medium. Type of data set: cell-based, human. How it is done: The cells were cultivated in RPMI (Roswell Park Memorial Institute) 1640 medium (Biosera; Nuaille, France) supplemented with 10% fetal bovine serum (FBS) and antibiotics (100 U/mL penicillin and […] streptomycin) (both from Merck). All further experiments were performed in serum-free medium. The effect of the test compounds dissolved in DMF on cell viability after 24 h incubation was determined using a Cell Counting Kit-8 (CCK-8; Merck) according to the manufacturer’s instructions, similarly as previously described.

In data set [5] the test system is human cancer cell lines (A2780, A2780R, PC-3, 22Rv1, and THP-1). Briefly: In vitro cytotoxicity, summary statements over the panel of cell lines. Type of data set: cell-based. The conditions noted are these: IC50 for normal cell line/IC50 for cancerous cell line. How it is done: as §1
Data set [6] deals with PPARγ. The data set can be described thus: Immunocytochemical analysis of PPARγ expression and localisation. Format: cell-based, human. To be noted: 100 nM, 1 h pre-treatment, LPS-stimulated THP1-Blue NF-κB macrophages. How it is done: THP1-Blue™ NF-κB cells were seeded onto a µ-Slide 8 Well (Ibidi; Gräfelfing, Germany) and differentiated into macrophages by […] (PMA) at the final concentration of 50 ng/mL, as was described previously.
Differentiated macrophages were washed by PBS and covered by fresh serum-free medium for 2 h. […] One hour later, the cells were challenged by LPS for 24 h. Then, the cells were washed by PBS and fixed by 4% paraformaldehyde dissolved in PBS for 10 min. Cell permeabilization and blocking of free binding sites were performed by 0.1% (v/v) Triton X100 and 5% (w/v) bovine serum albumin (BSA) dissolved in PBS for 1 h at room temperature. After that, cells were washed by PBS with 0.1% (v/v) Tween 20 and covered by fresh PBS with 5% BSA and 0.1% Tween 20 containing Alexa Fluor® 546-labelled anti-PPARγ antibody diluted 1:100 (catalogue number sc-7273; Santa Cruz Biotechnology; Dallas, TX, USA) for a further 24 h. Then, cells were washed by PBS with 0.1% Tween 20 and incubated with Hoechst stain diluted 1:2000 for 10 min. The remaining stain was washed out by PBS and covered by fresh PBS for further microscope analysis. The confocal microscope Leica TCS SP8 MP (Leica Microsystems, Mannheim, Germany) was used for obtaining the images for the immunocytochemical analysis of PPARγ expression and localization.

Where two headings read alike, the source gives them in different places.

In the case of `CC[PH](CC)(CC)[Au][S][C@@H]1O[C@H](COC(C)=O)[C@@H](OC(C)=O)[C@H](OC(C)=O)[C@H]1OC(C)=O` [Auranofin, [3,4,5-triacetyloxy-6-(acetyloxymethyl)-oxane-2-thiolate-(triethylphosphine)gold(I)]], the “Induction of autophagy” value in data set [1] is on record as “not shown to cause metabolic stress strong enough to induce the autophagy”. In addition, the “Cells with loss of mitochondrial membrane potential” value in data set [2] was “more than 80%”. Besides, the IC50 in data set [3] amounted to 3400 ± 600 nM; in data set [4] (THP1-Blue NF-κB cells, serum-free medium, 24 h treatment, CCK-8, read-out: IC50 ± SEM, cytotoxic effect) it was 500 ± 1100 nM. Besides, the “selectivity index (SI)” value in data set [5] is recorded as “around 1”.
As for `[Cl][Au].c1ccc(P(c2ccccc2)c2ccccc2)cc1` [[Au(PPh3)Cl]], the “Induction of autophagy” value in data set [1] is on record as “significantly induced the autophagy”. Moreover, the “Damage to mitochondrial membranes” value in data set [2] was “Significant changes in mitochondrial membrane permeability”. The “Effect on the amount of PPARγ” value in data set [6] is “did not show this effect”. Besides, the IC50 in data set [3] was found to be 5200 ± 200 nM; in data set [4], 1100 ± 1100 nM.
